Reference: ChEMBL document CHEMBL1201862, “PubChem BioAssay data set” (2004)
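Cultured in 96-well plates, cells were exposed to test compound for 48 hours across five concentrations. Here, GI50 denotes the concentration required for 50% inhibition of growth.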 Calls of active or inactive are those of the source. Cut-off read from the data, not from the text of the source: active = GI50 up to about 1.1 µM and inactive = higher.

Legend:
Assay in all cases: growth of human tumour cells (NCI), 48 h
MDA-MB-435 = tested on: MDA-MB-435
HOP-92 = tested on: HOP-92
SK-MEL-2 = tested on: SK-MEL-2
CAKI-1 = tested on: CAKI-1
SNB-19 = tested on: SNB-19
HOP-62 = tested on: HOP-62
UACC-62 = tested on: UACC-62
TK-10 = tested on: TK-10
KM12 = tested on: KM12
NCI-H23 = tested on: NCI-H23
786-0 = tested on: 786-0
U-251 = tested on: U-251
K562 = tested on: K562
SNB-75 = tested on: SNB-75
SK-MEL-28 = tested on: SK-MEL-28
Hs-578T = tested on: Hs-578T
T47D = tested on: T47D
MCF7 = tested on: MCF7
SF-539 = tested on: SF-539
MDA-N = tested on: MDA-N

Measured: GI50

Cc1ccc([S+]([O-])C[C@](NC(=O)OCc2ccccc2)(Sc2ccccc2)C(F)F)cc1 (some centres undefined)
inactive: MDA-MB-435 29.7 µM | HOP-92 17.8 µM | SK-MEL-2 27.6 µM | CAKI-1 21.5 µM | SNB-19 14.4 µM | HOP-62 35.8 µM | UACC-62 14.8 µM | TK-10 20.3 µM | KM12 14.6 µM | NCI-H23 17.7 µM | 786-0 13 µM | U-251 17 µM | K562 10.2 µM | SNB-75 13.2 µM | SK-MEL-28 18 µM | Hs-578T 23.9 µM | T47D 10.5 µM

C=C(C)C[C@H](Sc1nc2ccccc2s1)[C@H](C)O
inactive: MDA-MB-435 37.2 µM | HOP-92 24.6 µM | SK-MEL-2 23.1 µM | CAKI-1 70.1 µM | SNB-19 > 100 µM | MCF7 38.3 µM | HOP-62 > 100 µM | UACC-62 52.7 µM | TK-10 71.3 µM | KM12 41.2 µM | NCI-H23 31 µM | SF-539 41.8 µM | 786-0 40.8 µM | U-251 37.5 µM | K562 33.7 µM | SK-MEL-28 41.4 µM | MDA-N 37 µM | Hs-578T 41.3 µM

Nc1c(C(=O)Nc2ccc([As](=O)(O)O)cc2)cnc2nnnn12
inactive: MDA-MB-435 > 100 µM | HOP-92 > 100 µM | SK-MEL-2 > 100 µM | CAKI-1 > 100 µM | SNB-19 > 100 µM | MCF7 > 100 µM | HOP-62 > 100 µM | UACC-62 > 100 µM | TK-10 > 100 µM | KM12 > 100 µM | NCI-H23 > 100 µM | SF-539 > 100 µM | 786-0 > 100 µM | U-251 > 100 µM | K562 > 100 µM | SNB-75 > 100 µM | SK-MEL-28 > 100 µM | MDA-N > 100 µM | T47D > 100 µM

N#Cc1nc(Cc2cccs2)oc1N
inactive: MDA-MB-435 > 100 µM | HOP-92 > 100 µM | SK-MEL-2 > 100 µM | CAKI-1 > 100 µM | SNB-19 > 100 µM | MCF7 > 100 µM | HOP-62 > 100 µM | UACC-62 > 100 µM | TK-10 > 100 µM | KM12 > 100 µM | 786-0 > 100 µM | U-251 > 100 µM | K562 > 100 µM | SNB-75 > 100 µM | SK-MEL-28 > 100 µM | MDA-N > 100 µM | Hs-578T > 100 µM

CC(C)(C)c1c(C(C)(C)C)c(=O)c1=O
inactive: MDA-MB-435 > 100 µM | HOP-92 > 100 µM | SK-MEL-2 > 100 µM | CAKI-1 > 100 µM | SNB-19 > 100 µM | MCF7 > 100 µM | HOP-62 > 100 µM | UACC-62 > 100 µM | TK-10 > 100 µM | KM12 > 100 µM | NCI-H23 > 100 µM | SF-539 > 100 µM | 786-0 > 100 µM | U-251 > 100 µM | K562 > 100 µM | SNB-75 > 100 µM | SK-MEL-28 > 100 µM | MDA-N > 100 µM | Hs-578T > 100 µM

O=C1/C(=C\c2ccc(Cl)cc2Cl)Sc2scc(-c3ccc(O)c(O)c3)[n+]21
inactive: MDA-MB-435 12.2 µM | HOP-92 7.76 µM | SK-MEL-2 11.5 µM | CAKI-1 20.1 µM | SNB-19 17.6 µM | MCF7 16.2 µM | HOP-62 15.6 µM | UACC-62 7.36 µM | TK-10 12.7 µM | KM12 15.1 µM | NCI-H23 11.6 µM | SF-539 17.1 µM | 786-0 15.7 µM | U-251 11.9 µM | SNB-75 21.8 µM | SK-MEL-28 15.9 µM | MDA-N 17.5 µM | Hs-578T 27.2 µM

Nc1n2nc(-c3ccccc3)sc2n[n+]1CC(=O)c1ccccc1
inactive: MDA-MB-435 2.72 µM | SK-MEL-2 38.5 µM | CAKI-1 12.3 µM | SNB-19 21.7 µM | MCF7 5.37 µM | HOP-62 14 µM | UACC-62 7.06 µM | TK-10 27.4 µM | KM12 6.3 µM | NCI-H23 13.8 µM | SF-539 6.78 µM | 786-0 19.9 µM | U-251 12.6 µM | K562 3.09 µM | SNB-75 26.3 µM | SK-MEL-28 25.4 µM | Hs-578T 47.6 µM | T47D 30.4 µM

N/N=C1/C2CN3CCN(C2)CC1(c1ccc([N+](=O)[O-])cc1)C3
inactive: MDA-MB-435 > 100 µM | SK-MEL-2 > 100 µM | CAKI-1 > 100 µM | SNB-19 > 100 µM | MCF7 > 100 µM | HOP-62 > 100 µM | UACC-62 > 100 µM | TK-10 > 100 µM | KM12 > 100 µM | NCI-H23 > 100 µM | SF-539 > 100 µM | 786-0 > 100 µM | U-251 > 100 µM | K562 > 100 µM | SNB-75 > 100 µM | SK-MEL-28 > 100 µM | MDA-N > 100 µM | Hs-578T 14.7 µM
